Reference: patent publication US20020156023A1, “Lometrexol combination therapy” (Tularik Inc., priority 2000, published 2002)
Where a name gives a salt, the structure may show the parent alone.

How the values were obtained:
[1] = cited from earlier work
A549 cells = test: MTT cell proliferation assay, kinase inhibitor plus lometrexol, A549 cells; assay type: cell-based; settings: for IC50 in A549 cells in the presence of increasing concentrations of lometrexol: 48 hours incubation, MTT, IC50 calculated from the untreated cells, FIG. 1 and FIG. 2
Description: (§1) A549 and MDA-MB-231 cells were obtained from the ATCC. Cells were propagated in 75 cm^2 flasks in RPMI 1640 medium with 10% fetal bovine serum, 1% penicillin/streptomycin, and 1% glutamine. To initiate the experiment, cells were plated into 96-well plates at 3000 cells/well with the top and bottom rows containing media only as a negative control. The cells were incubated at 37° C. for 15 hours to allow the cells to adhere. After 15 hours, freshly prepared solutions of lometrexol and the appropriate kinase inhibitor (AG1478 or indirubin-3′-monoxime) at the desired dose were added to the media in varying concentrations in a 5×8 matrix of concentrations. Each plate also contained wells that contained medium only and no added compound. The cells were then incubated for 48 hours with the compounds. The relative cell number was determined using the cell proliferation assay reagent MTT. This reagent is converted by mitochondrial dehydrogenases to a colored formazan product that is then quantified by spectrophotometric analysis. […] The relative effect of the compounds was determined by the percentage of the untreated control cells.
The IC50 value was calculated from the untreated cells. […]. […] The data are presented as % growth relative to cells treated with lometrexol alone. The total incubation time with the compounds was 48 hours.

phosphorylated EGFR = test: EGFR phosphorylation in stimulated A549 cells (immunoprecipitation, western blot, densitometry); assay type: cell-based; settings: 24 hours, then 10% fetal bovine serum + 50 ng/ml EGF for 3 hours, FIG. 4
Description: The A549 lung adenocarcinoma cell line was grown under normal cell culture conditions. The cells were plated in 100 mm^2 dishes in RPMI 1640 culture medium containing 1% penicillin/streptomycin, 1% glutamine and 10% fetal bovine serum. The cells were allowed to grow to >95% confluence. Thereafter, the cells were rinsed twice with phosphate-buffered saline followed by the addition of low-serum medium (RPMI 1640 with 1% penicillin/streptomycin and 0.5% fetal bovine serum).
Lometrexol was added in amounts sufficient to achieve incubation concentrations of 0.004, 0.02, 0.1, 0.5 and 2.5 μg/ml. The cells were incubated in the low-serum medium with lometrexol for 24 hours. After the 24-hour incubation, the concentration of fetal bovine serum was increased to 10%, and 50 ng/ml EGF was added to the cells in the presence of lometrexol. The cells were incubated with these stimulants (fetal bovine serum and EGF) for 3 hours. […] The immunoprecipitated protein was separated by SDS-PAGE, and the amount of phosphorylated EGFR was determined by western blot analysis of the resulting gel using chemiluminescent detection. The blot was probed with an antibody that is specific for the activated, phosphorylated form of EGFR (Chemicon, Temecula, Calif.), and the resulting photographic film was analyzed by densitometry.

MDA-MB-231 cells = test: MTT cell proliferation assay, kinase inhibitor plus lometrexol, MDA-MB-231 cells; assay type: cell-based; settings: showing only mild growth inhibition by EGF
Description: as §1, with “cells. […]” for “cells.”

[2] = test system: ATP concentration in A549 cells; test: Cellular ATP by luminescent method CellTiter Glo in A549 cells; assay type: cell-based; settings: 24 hours incubation with lometrexol, FIG. 5, average of triplicate measurements
Description: A549 cells were propagated in 75 cm^2 flasks in RPMI 1640 medium with 10% fetal bovine serum, 1% penicillin/streptomycin, and 1% glutamine. To initiate the experiment, cells were plated into 96-well plates at 3000 and 10,000 cells/well with the top and bottom rows containing media only as a negative control. The cells were incubated at 37° C. for 15 hours to allow the cells to adhere. After 15 hours, freshly prepared solutions of lometrexol at the desired dose were added to the media in varying concentrations. Each plate also contained wells that contained medium only and no added compound. The cells were then incubated for 24 hours and the amount of ATP was determined by a luminescent method, CellTiter Glo™ (Promega, Madison, Wis.). Concurrently, the cell number was determined in duplicate rows so that the relative ATP concentration per number of cells could be determined. As depicted in FIG. 5 (average of triplicate measurements), the ATP concentration per million cells was decreased in cells treated with lometrexol at concentrations similar to those where the EGFR phosphorylation was effected and at concentrations similar to those which potentiate kinase inhibitors.

[3] = Storage stability of drug product / reconstituted solution; assay type: physicochemical; settings: reconstituted with 0.9% sodium chloride to approximately 10 mg/mL; vials contain no preservative
Description: Lometrexol sodium for injection is supplied for the study as a lyophilised off-white crystalline solid in single-use vials containing either 50 mg or 200 mg of lometrexol sodium. Vials are stored at room temperature and protected from light. Lometrexol sodium is reconstituted with 0.9% sodium chloride for injection to a concentration of approximately 10 mg/mL. […] Lometrexol sodium is not known to be a vesicant. Lometrexol sodium is administered on Day 1 of every 21-day cycle as a rapid (i.e., 30 to 60 seconds) intravenous bolus immediately prior to the dose of carboplatin. At each dose level shown in Table 1, the appropriate dose of lometrexol sodium is based on the patient's actual calculated body surface area (BSA) at the beginning of each cycle. Note: If the patient's BSA is >2.0 m^2 the dose is calculated using a maximum BSA of 2.0 m^2.
Doxorubicin HCl is available commercially available from several manufacturers in liquid or lyophilised form. The lyophilised powder is stable for 2 years when stored at room temperature and away from direct light. The commercial solution formulations must be stored under refrigeration. […] At each dose level shown in Table 2, the appropriate dose of doxorubicin is based on the patient's actual calculated body surface area (BSA) at the beginning of each 21-day cycle. […]

[4] = cited from earlier work; remark: listed apart in the source

For COc1cccc2c1C(=O)c1c(O)c3c(c(O)c1C2=O)C[C@@](O)(C(=O)CO)C[C@@H]3O[C@H]1C[C@H](N)[C@H](O)[C@H](C)O1 [Doxorubicin HCl], the “storage time of reconstituted solution” value ([1]; reconstituted with sterile water for injection or 0.9% sodium chloride) is listed as “up to 24 hours” and the “stability of lyophilised powder” value ([1]; stored at room temperature and away from direct light) is listed as 2 years.
In the case of indirubin-3′-monoxime, the “IC50 in A549 cells in the presence of increasing concentrations of lometrexol” value (A549 cells) was “decrease in IC50”.
For Nc1nc2c(c(=O)[nH]1)CC(CCc1ccc(C(=O)N[C@@H](CCC(=O)O)C(=O)O)cc1)CN2 (stereo partly shown) [lometrexol, 5,10-dideazatetrahydrofolic acid], the “lometrexol potentiation of kinase inhibitor growth inhibition” value (A549 cells; cell line sensitive to EGF stimulation) was “potentiation is observed”, the “relative amount of phosphorylated-EGFR per mg protein in the cell lysate” value (phosphorylated EGFR; lometrexol 0.004, 0.02 and 0.1 μg/ml) was 37-56 % of control and the “relative phosphorylated-EGFR” value (phosphorylated EGFR; lometrexol 0.5 and 2.5 μg/ml) was ≥ 3 % of the activated-control. For the same compound, the “lometrexol potentiation of kinase inhibitor growth inhibition” value (MDA-MB-231 cells) was “no observed potentiation” and the “ATP concentration per million cells” value [2] was “decreased”.
With Nc1nc2c(c(=O)[nH]1)C[C@@H](CCc1ccc(C(=O)N[C@@H](CCC(=O)O)C(=O)O)cc1)CN2 [Lometrexol sodium] the “time to use after reconstitution” value [3] was no more than 1 h.
For Nc1ccn([C@@H]2O[C@H](CO)[C@@H](O)C2(F)F)c(=O)n1 [Gemcitabine HCl], the “solubility in ethanol and polar organic solvents” value ([4]; ethanol and polar organic solvents) is given as “insoluble”, the solubility in methanol ([4]; methanol) is given as “slightly soluble” and the solubility in water ([4]; water) is given as “soluble”.
With COc1cc2ncnc(Nc3cccc(Cl)c3)c2cc1OC [tyrphostin AG1478, 4-(3-chloroanilino)-6,7-dimethoxyquinazoline] the “IC50 in A549 cells in the presence of increasing concentrations of lometrexol” value (A549 cells) was “decrease in IC50”.
